From patent EP3797781A1, “USE OF EC-7072 AND SYNERGIC COMPOSITIONS THEREOF IN TREATMENT OF CHRONIC LYMPHOCYTIC LEUKEMIA” (priority 2019, dated 2021)

How the values were obtained:
CD79A, CD79B and IgM = experiment: Surface expression of BCR complex components on leukemia cells by flow cytometry; type: cell-based, human; conditions: 200 nM, 8 hours; n = 5 - 6
Description: To determine immune cell populations, the following antibodies were employed: anti-CD19-APC, anti-CD3-APC, anti-CD4-PerCP and anti-CD8-APC (all from Immunostep); anti-CD3-FITC and anti-CD56-APC (Cytognos); and anti-CD3-PE/Cy7 and anti-CD5-APC/Cy7 (Biolegend). The subsets of immune cells were identified as follows: T cells were defined as CD3^+CD56^-, NK cells were identified as CD3^-CD56^+ and healthy B cells as CD19^+. Leukemia cells were defined as CD19^+, as the percentage of healthy B cells (CD19^+CD5^-) detected in PBMCs from patients with CLL was less than 2% (data not shown). Additionally, antibodies from Biolegend were used to detect surface expression of CD79A (clone: HM47), CD79B (clone: CB3-1) and IgM (clone: MHM-88). Cells were analyzed in a BD FACS Canto II flow cytometer with FACS Diva software (Beckton Dickinson).
The inhibition of the tonic BCR pathway by EC-7072 was evaluated by: • (i) incubating PBMCs from patients with CLL, following treatment with 200 nM EC-7072, for 8 hours. Surface expression of CD79A (Figure 7A), CD79B (Figure 7B) and IgM (Figure 7C) in leukemia cells (n = 5 - 6) was assessed by flow cytometry and the MFI was normalized to the control (DMSO) condition; • (ii) incubating isolated leukemia cells from patients with CLL (n = 10), following treatment with EC-7072 (200 nM), for 8 hours. […]

OP9 cells = experiment: Viability of OP9 stromal cells exposed to EC-7072; type: cell-based; conditions: exposure to EC-7072 for 24 hours
MEC-1 cells = experiment: Immunoblot of phosphorylated and total STAT3 in MEC-1 cells; type: cell-based; conditions: 200 nM, 0-, 3-, 8- and 12-hour time points; reduction of p-STAT3

Structure (SMILES): CO[C@@H]([C@@H]1Cc2cc3cc(O[C@H]4C[C@@H](O[C@H]5C[C@@H](O)[C@H](O)[C@@H](C)O5)[C@H](O)[C@@H](C)O4)c(C)c(O)c3c(O)c2C(=O)[C@H]1O[C@H]1C[C@@H](O[C@H]2C[C@@H](O[C@H]3C[C@](C)(O)[C@H](O)[C@@H](C)O3)[C@@H](O)[C@@H](C)O2)[C@H](O)[C@@H](C)O1)[C@@H](O)C(C)=O [EC-7072, mithramycin SK]
- CD79A CLL cell surface expression (CD79A, CD79B and IgM): unchanged
- CD79B and IgM CLL cell surface expression (CD79A, CD79B and IgM): significantly decreased
- viability of OP9 cells (OP9 cells): did not affect their viability
- levels of p-STAT3 in MEC-1 (MEC-1 cells): further confirmed
